Test results taken from ChEMBL document CHEMBL5357058, “Norterpene Cyclic Peroxides from the Marine Sponge Diacarnus spinipoculum, Inhibitors of Transient Receptor Potential Ankyrin 1” (J Nat Prod, 2024).

Target: Transient receptor potential cation channel subfamily A member 1 (Homo sapiens, UniProt O75762)
Test: Inhibition of human TRPA1 overexpressed in HEK293 cells assessed as reduction in AITC-induced calcium mobilization preincubated for 5 mins followed by AITC addition by FLIPR assay
Format: cell-based

Transient receptor potential cation channel subfamily A member 1, sequence (O75762 whole entry): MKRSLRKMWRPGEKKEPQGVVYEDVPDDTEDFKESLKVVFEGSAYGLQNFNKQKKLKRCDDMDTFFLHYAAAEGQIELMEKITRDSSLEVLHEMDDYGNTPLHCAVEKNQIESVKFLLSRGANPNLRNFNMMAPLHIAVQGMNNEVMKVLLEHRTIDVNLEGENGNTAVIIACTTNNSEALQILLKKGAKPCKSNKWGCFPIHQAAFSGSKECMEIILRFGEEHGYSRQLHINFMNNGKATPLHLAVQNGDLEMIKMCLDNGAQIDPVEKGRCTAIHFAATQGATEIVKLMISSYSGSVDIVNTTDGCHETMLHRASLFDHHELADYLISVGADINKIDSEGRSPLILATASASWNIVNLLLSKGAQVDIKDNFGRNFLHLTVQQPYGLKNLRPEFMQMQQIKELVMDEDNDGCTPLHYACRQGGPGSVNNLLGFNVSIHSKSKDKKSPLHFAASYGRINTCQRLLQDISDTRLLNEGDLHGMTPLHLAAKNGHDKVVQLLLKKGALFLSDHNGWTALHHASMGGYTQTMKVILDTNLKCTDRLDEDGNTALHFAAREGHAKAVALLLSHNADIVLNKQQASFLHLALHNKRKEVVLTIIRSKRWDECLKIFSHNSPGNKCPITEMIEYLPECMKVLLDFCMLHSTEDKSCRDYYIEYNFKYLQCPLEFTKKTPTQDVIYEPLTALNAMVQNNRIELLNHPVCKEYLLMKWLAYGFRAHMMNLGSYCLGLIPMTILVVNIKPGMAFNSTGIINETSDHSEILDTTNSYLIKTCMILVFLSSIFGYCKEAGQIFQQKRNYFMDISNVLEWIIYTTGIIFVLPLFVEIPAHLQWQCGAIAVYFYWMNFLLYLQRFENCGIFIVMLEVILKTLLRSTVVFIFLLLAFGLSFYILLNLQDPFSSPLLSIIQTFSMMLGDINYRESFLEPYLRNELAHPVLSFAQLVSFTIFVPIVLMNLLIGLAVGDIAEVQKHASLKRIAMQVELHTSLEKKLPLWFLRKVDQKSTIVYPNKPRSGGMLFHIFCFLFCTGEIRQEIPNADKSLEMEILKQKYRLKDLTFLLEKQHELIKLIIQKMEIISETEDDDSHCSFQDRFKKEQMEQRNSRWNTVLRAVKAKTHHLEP

SMILES | IC50
COC(=O)[C@H](C)[C@H]1CC[C@@](C)(CCC2=C(C)C(OC)CCC2(C)C)OO1 (mixture of isomers) | > 30 µM
COC(=O)[C@H](C)[C@@H]1CC[C@@](C)(CCC2=C(C)CCCC2(C)C)OO1 | 29.3 µM
CC1=C(CC/C(C)=C/CC[C@]2(C)CC[C@@H]([C@H](C)C(=O)O)OO2)C(C)(C)CCC1 | 5.6 µM
COC(=O)[C@H](C)[C@@H]1CC[C@@](C)(CCC2=C(C)C(=O)CCC2(C)C)OO1 [METHYL DIACARNOATE A] | > 30 µM
COC(=O)[C@H](C)[C@@H]1CC[C@@](C)(CCC2=C(C)C(OC)CCC2(C)C)OO1 (mixture of isomers) | > 30 µM
CC(=O)CCCC(C)(C)C(=O)CC/C(C)=C/CC[C@]1(C)CC[C@H]([C@@H](C)C(=O)O)OO1 [(+)-MUQUBILONE B] | > 30 µM
C=C1CCCC(C)(C)C1CC[C@]1(C)CC[C@H]([C@@H](C)C(=O)OC)OO1 (some centres not stated) [NUAPAPUIN B] | 18.9 µM
COC(=O)[C@H](C)[C@H]1CC[C@@](C)(CCC2=C(C)C(=O)CCC2(C)C)OO1 [DIACARPEROXIDE A] | 22.1 µM
COC(=O)[C@H](C)[C@@H]1CC[C@@](C)(CCC2=C(C)C(O)CCC2(C)C)OO1 (mixture of isomers) | > 30 µM
CC1=C(CC/C(C)=C/CC[C@@]2(C)CC[C@@H]([C@H](C)C(=O)O)OO2)C(C)(C)CCC1=O | 15.3 µM
C=C1CCCC(C)(C)C1CC[C@]1(C)CC[C@@H]([C@@H](C)C(=O)OC)OO1 (some centres not stated) | > 30 µM
CC1=C(CC[C@]2(C)CC[C@H]([C@@H](C)C(=O)O)OO2)C(C)(C)CCC1 | > 30 µM
CC1=C(CC/C(C)=C/CC[C@@]2(C)CC[C@@H]([C@H](C)C(=O)O)OO2)C(C)(C)CCC1 [EPIMUQUBILIN A] | 4.8 µM
COC(=O)[C@H](C)[C@H]1CC[C@@](C)(CCC2=C(C)C(O)CCC2(C)C)OO1 (mixture of isomers) | > 30 µM
C=C1CCC[C@H]2[C@](C)(CC[C@@]3(C)CC[C@H]([C@@H](C)C(=O)OC)OO3)[C@@H](C)CC[C@]12C | 13.5 µM
C=C1CCC[C@H]2[C@](C)(CC[C@@]3(C)CC[C@H]([C@@H](C)C(=O)O)OO3)[C@@H](C)CC[C@]12C | 2 µM
COC(=O)[C@H](C)[C@H]1CC[C@@](C)(CCC2=C(C)CCCC2(C)C)OO1 [NUAPAPUIN A METHYL ESTER] | 14.1 µM
